Reference: article PMC1764434 (PLoS Clinical Trials, 2007)
Values joined by “and” are separate entries in the source; they are usually repeats but may differ in a detail not shown here. Identical values can stand only once. “Also recorded” adds a separate entry of the source. Like-named read-outs stand apart in the source and are kept apart here. One block for each compound: values may come before it.

How the values were obtained:
[1] = Blood pharmacokinetics after oral dosing (fluorescence HPLC, noncompartmental WinNonlin model); assay type: in vivo, human; settings: for Cmax / Vd/F / MRT / Tmax / half-life / AUC: human, in vivo; for Cmax: read-out: Cmax; for MRT: read-out: MRT (converted); for AUC: po
Method: Study drugs were administered in the GCRC on an empty stomach between 8 and 9 AM the morning after admission (after fasting for ≥ 10 h).

[2] = Urinary excretion and renal clearance (24-hour urine collections, days 1-3)
QT interval = assay: Effects on the QT interval (ECG and Holter recordings, Bazett correction); settings: for QTc interval, Baseline: before dosing
Method: The effects of the study drugs on the QT interval were assessed by comparing QT intervals before dosing with QT intervals 4 h after dosing, and at the 2 wk follow-up. […] QT intervals were measured manually and electronically (Rozinn Electronics, Glendale, New York, United States). […] Correction of the QT interval for heart rate (i.e., QTc) was performed using Bazett's formula [27].

healthy volunteers [3] = assay: Post-dose clinical and laboratory follow-up (hematology, chemistry, organ toxicity); assay type: in vivo, human
healthy volunteers [4] = assay: Clinical adverse events (weekly diaries, blinded relatedness assessment), Phase I RCT; assay type: in vivo, human
Method: Adverse events (AEs) were recorded in weekly diaries provided to each volunteer. The relatedness of these AEs to the study drugs was assessed by two physicians (FM, CH) based on temporal association and biological plausibility using five categories: definitely not, unlikely, possibly, probably, and definitely related. The AEs reported in this manuscript include all AEs assessed as possibly, probably, or definitely related.
Quantitative data are presented as the mean ± standard deviation or as median and range, as appropriate. […] Due to a lack of normality, the nonparametric Mann-Whitney U test was used to compare independent samples; the Wilcoxon or Friedman test (whichever was appropriate) was used to compare repeated measures of the QTc interval. All statistical tests were two-sided with an α (significance level) of 0.05. Analyses were performed using the SPSS 11.0 statistical software (SPSS, Chicago, Illinois, United States). All analyses were based on allocation by intent-to-treat.

[5] = 1500 mg, 1,500 mg oral over 3 d, median (range)
[6] = single oral 600 mg dose, median (range)
[7] = days 1-3, 1,750 mg AQ-13 / 1,500 mg CQ
[8] = 1,750 mg AQ-13, 1,500 mg CQ, mean ± SD
[9] = 600/700 mg AQ-13, 600 mg CQ, mean ± SD
[10] = 1,500 mg CQ (n = 15) / 1,750 mg AQ-13 (n = 14)
[11] = 100, 300 mg doses, n = 16 per drug
[12] = 600/700 mg, AQ-13 n = 25, CQ n = 24
[13] = all doses combined, 63 volunteers per drug

detection of di-dealkylated metabolite in the blood ([1]; after oral AQ-13 or CQ): not detected in the blood
second (di-dealkylated) metabolite/parent ratio in urine ([2]; days 1-3, AQ-73/AQ-13 and BDCQ/CQ): 2.6%
detection of di-dealkylated metabolite in urine ([2]; urine collections days 1-3 after dosing): identified in urine collections
SMILES: CC(CCCN)Nc1ccnc2cc(Cl)ccc12 (stereo not drawn) [BDCQ]

blood level one hour after dosing as % of Cmax ([1]; 600 mg oral dose): 72%
Cl/F ([1]; 1,500 mg oral over 3 d, median (range)): 9.5 L/h
median oral clearance (range of medians across dose levels) ([1]; 600 and 1,500/1,750 mg doses): 9.5 to 11.3 L/h
Cmax ([1]; 1500 mg, 1,500 mg oral over 3 d (600+600+300 mg), whole blood, median (range)): 3400 nM
Vd/F [1, 5]: 3720 L
MRT [1, 5]: 16 days
Tmax ([1]; 1500 mg, 1,500 mg oral over 3 d, median (range), read-out: Tmax): 1.1 days
half-life ([1]; 1500 mg, 1,500 mg oral over 3 d, median (range), read-out: t½ (converted)): 13.2 days
AUC ([1]; 600 mg, single oral 600 mg dose, whole blood, median (range), read-out: AUCw1 (partial AUC for week 1)): 90 µM·h
AUC ([1]; 600 mg, single oral 600 mg dose, whole blood, median (range), read-out: AUCτ (total area under the curve)): 241 µM·h
AUC ([1]; 1500 mg, 1,500 mg oral over 3 d, median (range), read-out: AUCw1): 312 µM·h
AUC ([1]; 1500 mg, 1,500 mg oral over 3 d, median (range), read-out: AUCτ): 636 µM·h
Tmax ([1]; 1,750 mg AQ-13 / 1,500 mg CQ, 27–28 h after the first dose, read-out: time of peak blood concentration after the second dose): 0.125 to 0.167 days
half-life ([1]; 600 and 1,500 mg oral doses, read-out: estimate of the terminal elimination t1/2 (across doses)): 14 to 24 days
Cmax ([1]; single oral 600 mg dose (CQ base equivalent), whole blood, median (range)): 1800 nM
Vd/F [1, 6]: 8670 L
MRT ([1]; single oral 600 mg dose, whole blood, median (range)): 24.7 days
Tmax ([1]; single oral 600 mg dose, whole blood, median (range), read-out: Tmax): 0.125 days
half-life ([1]; single oral 600 mg dose, whole blood, median (range), read-out: t½ (terminal elimination half-life) (converted)): 23.3 days
linearity of pharmacokinetics ([1]; oral doses in healthy volunteers): linear pharmacokinetics
Cl/F (apparent oral clearance) [1, 6]: 11.3 (5.7–20.3) l/h
amount of unchanged drug recovered from 24 hour urine collections [2, 7]: 829 µmol
unchanged drug recovered from 24 hour urine collections, % of total oral dose [2, 7]: 18.0%
CL renal ([2]; human, in vivo, po, 1500 mg): 100 mL/min
SMILES: CCN(CC)CCCC(C)Nc1ccnc2cc(Cl)ccc12 (stereo not drawn) [CQ, chloroquine]
QTc interval of individual volunteers who developed QTc greater than 450 ms (QT interval; 600 mg CQ, two females): 467 ms and 457 ms
mean QTc prolongation after the first dose (day 1) (QT interval; 1,500 mg CQ (first 600 mg dose) / 1,750 mg AQ-13 (first 700 mg dose)): 16 ms
additional QTc increase after the second dose (day 2) (QT interval; 1,500 mg CQ / 1,750 mg AQ-13): 12 ms
QTc interval of individual volunteers who developed QTc > 450 ms (QT interval; 1,500 mg CQ, 4 h after dosing on day 2, two females): 453 ms
QTc interval, Baseline (QT interval; 1,750 mg AQ-13 (n = 13), 1,500 mg CQ (n = 14), mean ± SD): 396 ± 21 ms
QTc interval, 2 wk follow-up (QT interval; [8]): 412 ± 13 ms
QTc interval, 4–5 h post-dose (day 1) (QT interval; [8]): 412 ± 22 ms
QTc interval, 4–5 h post-dose (day 2) (QT interval; [8]): 424 ± 19 ms and 424 ± 18 ms
QTc interval, 4–5 h post-dose (day 3) (QT interval; [8]): 417 ± 21 ms
mean QTc prolongation, females (QT interval; 1,750 mg AQ-13 / 1,500 mg CQ): 28 ms
mean QTc prolongation, males (QT interval; 1,750 mg AQ-13 / 1,500 mg CQ): 31 ms
mean increase in the QTc interval from baseline (QT interval; 1,750 mg AQ-13 / 1,500 mg CQ, 4 h after the second dose on day 2): 28 ms
QTc interval, Baseline (QT interval; 600/700 mg AQ-13 (n = 25), 600 mg CQ (n = 24), mean ± SD): 406 ± 19 ms
QTc interval, 2 wk follow-up (QT interval; [9]): 403 ± 15 ms
QTc interval, 4–5 h post-dose (day 1) (QT interval; [9]): 421 ± 20 ms
maximal prolongation of the QTc interval from baseline at the individual level (QT interval; 600/700 mg dose): 54 ms
maximal prolongation of the QTc interval from baseline at the individual level (QT interval; 1,500/1,750 mg dose): 63 ms
mean increase in the QTc interval from baseline, females (QT interval; 4 h after 600 mg CQ or 600/700 mg AQ-13): 22 ms
mean QTc interval change from baseline, males (QT interval; 4 h after 600 mg CQ or 600/700 mg AQ-13, not significant): 7 ms
mean increase in the QTc interval from baseline (QT interval; 4 h after 600 mg CQ or 600 or 700 mg AQ-13): 15 ms and 16 ms
arrhythmias or other cardiac AEs (QT interval; all doses): no arrhythmias or other cardiac AEs; also recorded: no cardiac AEs
hematologic or chemical toxicities on repeat laboratory testing (healthy volunteers [3]; 4 d after drug administration): no hematologic or chemical toxicities
organ toxicity (healthy volunteers [3]; any dose tested, inpatient exams, 2 and 4 wk follow-up): No hematologic, hepatic, renal, or other organ toxicity was observed; also recorded: no clinical evidence for end-organ toxicity
related adverse events: None (healthy volunteers [4]; 10 mg dose, n = 8 per drug): 0
Abdominal pain, number (%) (healthy volunteers [4]; [10]): 0
Blurred vision, number (%) (healthy volunteers [4]; [10]): 2 (13%)
Diarrhea, number (%) (healthy volunteers [4]; [10]): 4 (27%)
Difficulty focusing/visual floating objects, number (%) (healthy volunteers [4]; [10]): 3 (20%)
Lightheadedness/Dizziness, number (%) (healthy volunteers [4]; [10]): 4 (27%)
Loss of appetite, number (%) (healthy volunteers [4]; [10]): 2 (13%)
Nausea, number (%) (healthy volunteers [4]; [10]): 5 (33%)
Vomiting, number (%) (healthy volunteers [4]; [10]): 2 (13%)
Weakness/fatigue, number (%) (healthy volunteers [4]; [10]): 0
Headache, number (%) (healthy volunteers [4]; 1,500 mg CQ (n = 15) / 1,750 mg AQ-13 (n = 14) over 3 d): 4 (27%)
Headache, volunteers with related AE, number (%) (healthy volunteers [4]; [11]): 1 (6%)
Lightheadedness/Dizziness, number (%) (healthy volunteers [4]; [11]): 1 (6%)
Nausea, number (%) (healthy volunteers [4]; [11]): 0
Abdominal pain, number (%) (healthy volunteers [4]; [12]): 0
Diarrhea, number (%) (healthy volunteers [4]; [12]): 2 (8%)
Ear symptoms, number (%) (healthy volunteers [4]; [12]): 2 (8%)
Headache, number (%) (healthy volunteers [4]; [12]): 5 (21%)
Lightheadedness/Dizziness, number (%) (healthy volunteers [4]; [12]): 3 (13%)
Loss of appetite, number (%) (healthy volunteers [4]; [12]): 3 (13%)
Nausea, number (%) (healthy volunteers [4]; [12]): 1 (4%)
Vomiting, number (%) (healthy volunteers [4]; [12]): 0
drug-related GI symptoms, number of reports (healthy volunteers [4]; all doses combined): 20 reports
drug-related lightheadedness/dizziness, volunteers/total (healthy volunteers [4]; [13]): 8/63
volunteers reporting one or more GI symptoms/total (healthy volunteers [4]; [13]): 13/63
